Test system: H1 influenza virus A/Puerto Rico/8/1934 (PR8)
Design: species or system BALB/c mice
Conditions: mouse, in vivo

CCOC(=O)C1=C[C@@H](OC(CC)CC)[C@H](NC(C)=O)[C@@H](N)C1 [Tamiflu]
protection: completely ineffective in protection

Reference: patent US11827693B2, “Composition and methods based on neutralizing antibodies delivered intranasally for enhanced therapeutic efficacy” (priority 2013, dated 2023)
